Several values for one entry are separate records, joined by “and”; a condition that tells them apart may be missing. Equal entries are not always repeated. Where two headings read alike, the source gives them in different places. Each block holds one compound with its values, some of them ahead of it.
Columns and labels:
Rad51-BRC repeat binding = target: T1, Rad51-BRC repeat binding (Homo sapiens, UniProt Q06609); assay: SPR (Biacore) competitive binding assay, solution competition format
T1 sequence (Q06609 1-339): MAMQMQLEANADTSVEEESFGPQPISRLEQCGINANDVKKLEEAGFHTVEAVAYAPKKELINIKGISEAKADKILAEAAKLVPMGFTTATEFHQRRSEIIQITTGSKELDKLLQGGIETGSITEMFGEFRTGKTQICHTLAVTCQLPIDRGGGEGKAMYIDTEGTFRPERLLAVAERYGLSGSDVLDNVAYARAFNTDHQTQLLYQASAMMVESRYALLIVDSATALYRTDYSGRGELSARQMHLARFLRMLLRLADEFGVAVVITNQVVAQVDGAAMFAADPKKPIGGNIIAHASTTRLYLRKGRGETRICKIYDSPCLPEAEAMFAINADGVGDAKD
Method: Therefore, the 5-position of indole ring may provide a potential site for further modification. The inventors also noticed that there is a chiral center in the IBR compounds as marked by an asterisk in FIG. 1B. Initially, the inventors separated these two enantiomers by chiral HPLC (Regis Whelk-O1, Hexane:isopropanol=75:25) as shown in chromatogram of FIG. 1C and determined the absolute configuration by X-ray crystallography. […] Here, the inhibition of Rad51-BRC repeat binding was analyzed by SPR in a solution competition format.
Successful entities are then analyzed with Biacore's surface plasmon resonance (SPR) technique in a solution competition format to determine their median inhibitory concentration on Rad51. Briefly, the assays are performed on a Biacore 3000 (Biacore Inc.) using a Sensor chip NTA (Biacore Inc.) for capturing His-tagged Rad51 protein. The concentration of BRC protein is kept constant. Compounds are dissolved in DMSO at 20 mM and serially diluted in each BRC test sample. The assays are performed at 25° C. in running buffer (10 mM HEPES, 150 mM NaCl, 0.1% DMSO). Relative BRC-Rad51 binding percentage in the presence of inhibitors is calculated. The experiments are carried out in triplicate and averaged. The best-fit competitive binding curve is drawn and median inhibitory concentration of each candidate compound is obtained. The results of these assays are thought to help to establish a quantitative structure-activity relationship, which in turn guides further optimization of the positive hits.
To further determine the binding affinity of IBR2 to Rad51, the inventors then used a Biacore competitive binding assay.

BRC-RAD51 interaction = target: T2, BRC-RAD51 interaction (Homo sapiens, UniProt Q06609); assay: inducible reverse yeast two-hybrid screening; assay type: cell-based
T2 construct: expressed in transfected cells; host or cells: yeast strain harboring a TetOp-driven URA3 gene
T2 sequence (Q06609 1-339): T1 sequence (Q06609 1-339)
Description: Briefly, two fusion proteins, the TetR-BRC fusion protein (TetR/NCB, constitutively expressed) and the Rad51-activation domain fusion protein (AD/Rad51, expressed under the GAL1 promoter), worked together as a transcriptional activator in a yeast strain harboring a TetOp-driven URA3 gene. The interaction between these two fusion proteins induced the expression of URA3 gene, and the toxic metabolite from 5-FOA in the medium caused cell death. If the small molecules tested inhibited TetR/BRC/AD/Rad51 interaction, URA3 expression was abolished and cells are allowed to grow.
The reverse yeast two-hybrid system is used to perform the second round screening of the modified small compounds. TetR/NCB fission protein which contains BRC1-4 repeats (TetR/NCB) are expressed constitutively; the expression of a RAD51-GAL4 Activation Domain fusion protein (AD/RAD51) is rendered galactose-inducible under GAL1 promoter. Yeast is grown on a galactose medium containing 5-FOA. The assay is performed on 96-well plates. Small molecule compounds are added into the medium at the concentration of 10 mM in the total volume of 100 ml. The compounds that can disrupt the BRC-RAD51 interaction are identified by the viability of the yeast.

[1] = system: human blast crisis CML K562 cells; assay: percentage of apoptotic cells; assay type: cell-based
Ba/F3-p210 cells [2] = assay: percentage of apoptotic cells; assay type: cell-based, murine; details: 48 hours
Description: Since Rad51 and BCR-ABL are in the same pathway essential for cell survival, it was contemplated that simultaneous treatment of Ba/F3-p210 cells with both inhibitors may synergistically enhance the cell death. […] Exemplary results are depicted in FIGS. 4A and 4B.

[3] = system: Ba/F3 cells expressing T315I BCR-ABL; assay: XTT growth inhibition; assay type: cell-based, murine; details: Mus musculus, BaF3, 48 hr
Method: (§1) In CML cells, the constitutively active BCR-ABL is responsible for maintaining high levels of Rad51 activity by direct activation through phosphorylation and transcriptional up-regulation mediated by STAT5. It is therefore contemplated that inhibition of Rad51 activity by IBR2 may have detrimental effects on CML. To test this possibility, murine hematopoietic Ba/F3 progenitor cells expressing different versions of BCR-ABL (e.g., wild-type, T315I, and E255K) mutants were treated with IBR2 at indicated concentrations for 48 hr, and growth inhibition was then determined by XTT (sodium 3′-[1-(phenylaminocarbonyl)-3,4-tetrazolium]-bis(4-methoxy-6-nitro) benzene sulfonate) assay. […] To further test whether the growth inhibition was resulted from cell death or cytostatic effect of IBR2 treatment, the inventors then determined the percentages of annexin V positive cells, which is indicative of cell death, after IBR2 treatment.

Ba/F3-T315I cells [4] = assay: induction of cell death; assay type: cell-based, murine; details: 20 μM IBR2 alone
BRC repeat = assay: SPR compound pretreatment, immobilized BRC repeat; assay type: binding
Method: (§2) To determine whether it was Rad51 or BRC repeat that actually served as a direct target of these compounds, surface plasmon resonance (SPR) was employed to detect the inhibition of protein binding by compound pretreatment. In principle, one of the proteins was attached to the sensor chip, and IBR compounds were allowed to pass through the surface; then, the binding of the second protein was measured. If IBR compounds bind the immobilized protein, the binding of the second protein will be reduced; otherwise, the binding capacity of second protein will be mostly retained.

Ba/F3-T315I cells [5] = assay: Western blot of protein expression; assay type: cell-based, murine; details: 20 μM IBR2 alone, within 12-24 hours
Description: Direct targeting to Rad51 may provide a potential strategy to overcome this type of resistance. […] Next, the inventors examined the effects of IBR2 treatment on the protein expression levels in these cells by western blot.

Ba/F3-p210 cells [6] = assay: median-effect and Combination Index analysis (Chou's method); assay type: cell-based, murine; details: Mus musculus, read-out: median-effect dose (Dm)
Ba/F3 parental cells [7] = assay: XTT growth inhibition; assay type: cell-based, murine; details: 48 hr
Rad51 [8] = target: T3, Rad51 (Homo sapiens, UniProt Q06609); assay: gel filtration profile of Rad51 (multimerization); assay type: biochemical; details: data not shown
T3 sequence (Q06609 1-339): T1 sequence (Q06609 1-339)
Method: To test this possibility, the inventors then compared the gel filtration profile of Rad51 incubated in the presence or absence of IBR2. […] The inventors then aligned the 3D structure of IBR2 with the BRC4 hairpin structure and the Rad51 oligomerization motif together. […] Therefore, one possibility of the action mechanism is that IBR compounds, by mimicking Phe1524 of BRCA2, may block the entrance of the hydrophobic binding pocket on Rad51 core domain, and inhibit BRCA2/Rad51 interaction as well as Rad51 multimerization.

[9] = system: Rad51 foci formation in MCF-7 breast cancer cells; assay: IR-induced Rad51 foci formation assay; assay type: cell-based
Method: These compounds were then tested for their effects on the IR-induced Rad51 foci formation in MCF-7 breast cancer cells. […] These compounds were then tested for their effects on the IR-induced Rad51 foci formation in MCF-7 breast cancer cells as also described in WO 2006/044933.

Ba/F3-T315I cells [10] = assay: survival of NOD/SCID mice injected with Ba/F3-T315I cells; assay type: in vivo; details: 100 mg/kg, 30 days, vs vehicle, p<0.01
Rad51 [11] = target: T3, Rad51; assay: SPR compound pretreatment, immobilized Rad51; assay type: binding
Method: as §2

[12] = system: Ba/F3 cells expressing WT, T315I or E255K BCR-ABL; assay: annexin V positive cells (apoptosis); assay type: cell-based, murine; details: dose dependent
Method: as §1

Ba/F3 parental cells [13] = assay: Western blot of protein expression; assay type: cell-based, murine; details: IBR2-treated
Method: To examine the consequence of the BCR-ABL/Stat5/Rad51 regulatory pathway, the protein expression as well as their phosphorylation states in IBR2-treated cells were analyzed by Western blot.

[14] = system: Ba/F3 cells carrying BCR-ABL expression; assay: Western blot of BCR-ABL/Stat5/Rad51 pathway; assay type: cell-based, murine
Method: (§3) To examine the consequence of the BCR-ABL/Stat5/Rad51 regulatory pathway, the protein expression as well as their phosphorylation states in IBR2-treated cells were analyzed by Western blot. […] On the contrary, there was little effect on Ba/F3 parental cells. The decrease of Rad51 expression in IBR2-treated cells is consistent with the inventors′ earlier observation that IBR2 induces Rad51 degradation mediated by proteasome in breast cancer cells. Furthermore, the inventors performed the same set of experiments using compound B6, which has no inhibitory activity to Rad51 in vitro.

Ba/F3-P210 = assay: cell growth (viable cell count / XTT); assay type: cell-based; details: 0 to 20 μM, up to three days, dose-dependent
Method: (§4) The inventors also examined the effect of IBR2 on growth of Ba/F3 expressing wild type Bcr-Abl-P210 and Bcr-Abl mutant isoform T315I. […] FIG. 9 illustrates the effect of IBR2 on parental Ba/F3 cells and Ba/F3 cells expressing WT Bcr-Abl or Bcr-Abl mutant isoform T315I cells. […] After 72 hours of incubation, proliferation was measured by XTT-based method. Absorbance was measured at 490 nm in a microplate reader. Bars are SD, n=2.

Ba/F3-T315I = assay: cell growth (viable cell count / XTT); assay type: cell-based; details: 0 to 20 μM, up to three days, dose-dependent
Method: as §4

[15] = system: BCR-ABL-expressing Ba/F3 cells; assay: XTT growth inhibition; assay type: cell-based, murine; details: 48 hr
Method: as §1
as §3, with “Furthermore, the inventors performed the same set of experiments using compound B6, which has no inhibitory activity to Rad51 in vitro.” left out

K562 cells = assay: Western blot of protein expression; assay type: cell-based, human; details: imatinib, absence of IBR2
Description: The inventors then examined the protein expression levels of Rad51, BCR-ABL and Stat5 by western blot analysis.

Ba/F3-p210 cells [16] = assay: Western blot of protein expression; assay type: cell-based, murine; details: 0.1-0.6 μM imatinib, absence of IBR2
Description: The inventors then examined the effects of co-treatment on Rad51, BCR-ABL, and Stat5 protein expression levels as described above.

[17] = SPR, solution competition format, read-out: median inhibition concentration

SMILES: O=S(=O)(Cc1ccccc1)N1C=Cc2ccccc2C1c1c[nH]c2ccccc12 (racemic) [IBR2]
IC50 (Rad51-BRC repeat binding; [17]): ~115 nM

SMILES: O=S(=O)(Cc1ccccc1)N1C=Cc2ccccc2C1c1c[nH]c2ccccc12 (centres unmarked) [IBR2]
yeast two-hybrid screening (BRC-RAD51 interaction): positive
apoptotic percentage ([1]; IBR2 15 μM alone): ~10%
apoptotic cells (Ba/F3-p210 cells [2]; IBR2 5 μM): about 1.7%
apoptotic cells (Ba/F3-p210 cells [2]; IBR2 10 μM): ~4.1%
apoptotic cells (Ba/F3-p210 cells [2]; IBR2 15 μM alone): < 10% and ~12.6%
apoptotic cells (Ba/F3-p210 cells [2]; IBR2 20 μM): ~57.1%
IC50 [3]: 12000 nM
cell death (Ba/F3-T315I cells [4]): over 80%
binding of immobilized BRC repeat to Rad51 after compound pretreatment (BRC repeat): did not affect
protein expression levels of Rad51, BCR-ABL, p-BCR-ABL and p-Stat5 (Ba/F3-T315I cells [5]): dramatically reduced
EC50 (Ba/F3-p210 cells [6]): 13900 nM
proliferation (Ba/F3 parental cells [7]): much less
Rad51 elution profile (multimerization) (Rad51 [8]): major peak consistent with the molecular weight of a monomer
IR-induced Rad51 foci formation [9]: dramatically reduced Rad51 foci formation
IR-induced Rad51 foci formation ([9]; listed as NS7798): positive
survival of mice (Ba/F3-T315I cells [10]): significantly prolonged survivals
binding of BRC repeat to immobilized Rad51 after compound pretreatment (Rad51 [11]): lost the ability to bind BRC repeat
apoptosis (annexin V positive cells) [12]: induced apoptosis
protein expression and phosphorylation (Ba/F3 parental cells [13]): little effect
Rad51, BCR-ABL and phosphorylated Stat5 (p-Stat5) levels [14]: dose-dependent decreases
c-Abl, p-c-Abl and total Stat5 protein [14]: unchanged
cell growth (Ba/F3-P210): significantly inhibited the growth
cell growth (Ba/F3-T315I): significantly inhibited the growth
IC50 (Rad51-BRC repeat binding; Biacore competitive binding assay, read-out: IC50): 110 nM
proliferation [15]: inhibited the proliferation

IC50 (Rad51-BRC repeat binding; [17]): ~1 nM
SMILES: O=S(=O)(Cc1ccccc1)N1C=Cc2ccccc2[C@@H]1c1c[nH]c2ccccc12 [R-IBR2]

SMILES: Cc1ccc(NC(=O)c2ccc(CN3CCN(C)CC3)cc2)cc1Nc1nccc(-c2cccnc2)n1 [imatinib]
apoptotic percentage ([1]; imatinib 0.1 μM): about 9.7%
apoptotic percentage ([1]; imatinib 0.2 μM): ~11.8%
apoptotic percentage ([1]; imatinib 0.6 μM): ~28.1%
apoptotic cells (Ba/F3-p210 cells [2]; imatinib 0.1 μM): about 6.8%
apoptotic cells (Ba/F3-p210 cells [2]; imatinib 0.2 μM): ~7.6% and ~10%
apoptotic cells (Ba/F3-p210 cells [2]; imatinib 0.4 μM): ~23.1%
apoptotic cells (Ba/F3-p210 cells [2]; imatinib 0.6 μM): ~39.3%
Rad51, BCR-ABL, p-BCR-ABL, p-Stat5 levels (K562 cells): decreased in a dose dependent manner
Stat5 protein level (K562 cells): did not affect
Rad51, BCR-ABL, p-BCR-ABL and p-Stat5 levels (Ba/F3-p210 cells [16]): modestly decreased
Stat5 protein level (Ba/F3-p210 cells [16]): did not influence
